Columns and labels:
[1] = system: S. mutans UA159 biofilm; test: Minimum biofilm inhibition concentration (MBIC50), MTT; type: cell-based, Streptococcus mutans; conditions: 24 h
Procedure: Characterization analysis of pHly -1 NPs at different pHs. The morphology of pHly-1 NPs at pH 4.5 and 7.0were analyzed by TEM and AFM, respectively 3,4. TEM images were taken by a Tecnai G2 F20 microscope with an accelerating voltage of 100 kV. The final concentration of TEM samples of pHly -1 NPs was 100 μM. An 8 μL TEM sample was pipetted onto the carbon-coated copper grid surface for 3 min and removed by filter paper. Then, 8 μ L of 2 wt % uranyl acetate was dripped onto the grid for staining 3 min. After removing the droplet with filter paper, the grid was dried in a desiccator before measurement. […]
The secondary structure of pHly-1 NPs in different solutions at pH 4.5 and 7.0 was determined by Jasco-810 spectropolarimeter using 2 mm quartz slides at 25 °C.
According to the method reported in the literature5 to prepare l iposome required in the secondary structure test. […] All spectra were recorded with a wavelength interval of 0.5 nm. […] In addition, Zeta (ζ ) potentials and hydrodynamic sizes of pHly-1 NPs were measured using a Zetasizer (Malvern Instruments, UK). […]
RNA- seq Analysis. […] T he quality and quantity of the RNA were assessed by NanoDrop 2000/2000c (Thermo Scientific, Wilmington, DE, USA). RNA integrity number (RIN) was analyzed by Agilent 2100 Bioanalyzer (Agilent Technologies, Santa Clara, CA, USA). […] The cleaned reads were mapped to the S.mutans reference genome using Rockhooper26. […]

[2] = system: S. mutans UA159 biofilms on sHA; test: Biofilm model on saliva-coated hydroxyapatite (sHA); type: cell-based, Streptococcus mutans; conditions: 55 µM; pH 4.5; 10 min, total of 5 days; n = 3
Excerpt: Treatment and quantitative analysis of b iofilm model on sHA. S.mutans biofilms also formed on sHA blocks (surface area=1 ± 0.2 cm2) in 24-well plates. According to the literature10, before the experiment, hydroxyapatite (diameter, 1.25 cm; Kunshan Chinese technology new materials CO, LTD) was coated with filter-sterilized clarified human whole saliva. The biofilm formation, treatment regimen, and quantitative analysis were roughly similar to the biofilms formed on circular glass slides as described above. The differences are that the biofilms should be treated after 24 hours of formation and biofilms were treated every other day for a total of 5 days. In addition, after treatment for 5 days, the sHA blocks were washed with PBS (pH 7.0) and then fixed with 2.5 % glutaraldehyde for 10 min. After being washed another 3 times with PBS (pH 7.0) to remove the remaining glutaraldehyde, the sHA blocks were stained using 0.5% crystal violet for 20 min. The fully washed sHA blocks were observedunder a light microscope (Insein Li Fung1080P 60FPS, China).
Treatment and quantitative analysis of human derived ex vivo biofilm s. […] The total cultivable bacteria for ex vivo biofilm formation was measured to ensure the same density of added bacteria (~2× 108). […] The quantitative analysis was measured by counting the CFU of alive bacteria with agar plating after incubation for 48 h at 37 °C. […]

With `[H]/N=C(\N/C(=N/[H])NCCCCCCNC(=N)NC(=N)Nc1ccc(Cl)cc1)Nc1ccc(Cl)cc1` [CHX, chlorhexidine] the MBIC50 ([1]; pH 5.5, BHI with 1% sucrose) was 0.6 µM, the MBIC50 ([1]; pH 7.0, BHI with 1% sucrose) was 0.8 µM and the “biofilm on sHA, viable cell count (CFU)” value [2] was “apparent antibiofilm efficacy”.

Reference: PMC9254247, “Dual-sensitive antibacterial peptide nanoparticles prevent dental caries” (Theranostics, 2022)
